This is an account of results in patent US20230012368A1 (Hoffmann-La Roche Inc., priority 2018, published 2023).

The structures appear in SMILES notation. Where a name gives a salt, the structure may show the parent alone.

In the first assay the test system is Acinetobacter baumannii ATCC 17978. The experiment in a line: Antimicrobial susceptibility testing: 90% growth inhibitory concentration (IC90) determination. In kind it is cell-based. The settings on record: 90% growth inhibitory concentration; Acinetobacter baumannii ATCC17978; Iso-Sensitest broth, OD 600 nm over 16h; read-out: ATCC17978 IC90. In a few lines: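 Compounds serially twofold diluted (e.g. 50 to 0.097 μM final) in Iso-Sensitest broth, inoculated at ~5×10^(5) CFU/ml, incubated at 35±2° C. OD600 read every 20 minutes over 16h. IC90 taken as concentration inhibiting 90% of growth during logarithmic phase.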
Usually IC90 stands for the concentration at which the effect reaches the 90% level. Turning to `COc1ccc(-c2cnc3c(Nc4ccc(C(=O)N(C)CC5CNC5)c(C)c4)nccn23)cc1F` [Example 384, N-(azetidin-3-ylmethyl)-4-[[3-(3-fluoro-4-methoxyphenyl)imidazo[1,2-a]pyrazin-8-yl]amino]-N,2-dimethylbenzamide], the IC90 stood at 880 nM. Turning to `CCc1cc(Nc2nccn3c(-c4ccc(OC)c(F)c4Cl)cnc23)ccc1C(=O)NCCCN` [Example 389, N-(3-aminopropyl)-4-[[3-(2-chloro-3-fluoro-4-methoxyphenyl)imidazo[1,2-a]pyrazin-8-yl]amino]-2-ethylbenzamide; hydrochloride], the IC90 turned out to be 500 nM. Still for that read-out and setting: the value for `CCc1cc(Nc2nccn3c(-c4ccc(OC)c(F)c4F)cnc23)ccc1C(=O)NCCCNC(=O)CC[C@H](NC(=O)[C@@H](N)CCCCN)C(=O)O` [Example 403, N2-(L-lysyl)-N5-(3-(4-((3-(2,3-difluoro-4-methoxyphenyl)imidazo[1,2-a]pyrazin-8-yl)amino)-2-ethylbenzamido)propyl)-L-glutamine trihydrochloride] was 940 nM.

Staying with this assay, now noted: Acinetobacter baumannii, ATCC17978, 16 h, 90% growth inhibitory concentration; Acinetobacter baumannii ATCC17978; Iso-Sensitest broth, OD 600 nm over 16h; read-out: ATCC17978 IC90.
`COc1ccc(-c2cnc3c(Nc4ccc(C(=O)NCCN5CCNCC5)c(C)c4)nccn23)c(F)c1F` [Example 377, 4-[[3-(2,3-difluoro-4-methoxyphenyl)imidazo[1,2-a]pyrazin-8-yl]amino]-2-methyl-N-(2-piperazin-1-ylethyl)benzamide]: the IC90 was 180 nM. Regarding `COc1ccc(-c2cnc3c(Nc4ccc(C(=O)N[C@H](CO)Cc5cnc[nH]5)c(C)c4)nccn23)cc1F` [Example 383, 4-[[3-(3-fluoro-4-methoxyphenyl)imidazo[1,2-a]pyrazin-8-yl]amino]-N-[(2S)-1-hydroxy-3-(1H-imidazol-5-yl)propan-2-yl]-2-methylbenzamide], the IC90 turned out to be 820 nM.

For the molecule `CCc1cc(Nc2nccn3c(-c4ccc(Cl)c(F)c4F)cnc23)ccc1C(=O)NCCCN1CCC1` [Example 386, N-[3-(azetidin-1-yl)propyl]-4-[[3-(4-chloro-2,3-difluorophenyl)imidazo[1,2-a]pyrazin-8-yl]amino]-2-ethylbenzamide], the IC90 was found to be 950 nM. On the same count and under the same terms, the same measure for `CCc1cc(Nc2nccn3c(-c4ccc(OC)c(F)c4F)cnc23)ccc1C(=O)NCCC1CCNCC1` [Example 388, 4-[[3-(2,3-difluoro-4-methoxyphenyl)imidazo[1,2-a]pyrazin-8-yl]amino]-2-ethyl-N-(2-piperidin-4-ylethyl)benzamide; hydrochlo-ride]: 200 nM; for `COc1ccc(-c2cnc3c(Nc4ccc5c(c4)CCCNC5=O)nccn23)cc1F` [Example 390, 7-[[3-(3-fluoro-4-methoxy-phenyl)imidazo[1,2-a]pyrazin-8-yl]amino]-2,3,4,5-tetrahydro-2-benzazepin-1-one hydrochloride]: 220 nM; for `COc1ccc(-c2cnc3c(Nc4ccc5c(c4)CCN(C)C5=O)nccn23)c(F)c1F` [Example 391, 6-[[3-(2,3-difluoro-4-methoxy-phenyl)imidazo[1,2-a]pyrazin-8-yl]amino]-2-methyl-3,4-dihydroisoquinolin-1-one]: 51 nM. Same read-out and setting: the value for `COc1ccc(-c2cnc3c(Nc4ccc(C(=O)NCCCN)c(CCF)c4)nccn23)c(F)c1F` [Example 392, N-(3-aminopropyl)-4-[[3-(2,3-difluoro-4-methoxy-phenyl)imidazo[1,2-a]pyrazin-8-yl]amino]-2-(2-fluoroethyl)benzamide] was 340 nM; that for `CCc1cc(Nc2nccn3c(-c4ccc(OC)c(F)c4F)cnc23)ccc1C(=O)NCCNC(=O)[C@@H](N)[C@@H](C)O` [Example 393, N-[2-[[(2S,3R)-2-amino-3-hydroxy-butanoyl]amino]ethyl]-4-[[3-(2,3-difluoro-4-methoxy-phenyl)imidazo[1,2-a]pyrazin-8-yl]amino]-2-ethyl-benzamide; formic acid] was 260 nM. With `C#CCOc1ccc(-c2cnc3c(Nc4ccc(C(=O)NCCCN)c(CC)c4)nccn23)c(F)c1F` [Example 394, N-(3-aminopropyl)-4-[[3-(2,3-difluoro-4-prop-2-ynoxy-phenyl)imidazo[1,2-a]pyrazin-8-yl]amino]-2-ethyl-benzamide; formic acid], the IC90 amounted to 310 nM. On the same count and under the same terms, the same measure for `CN(CCCSc1nc(=O)c(=O)[nH]n1C)C(=O)c1ccc(Nc2nccn3c(-c4ccc(OCC#N)c(F)c4F)cnc23)cc1Cl` [Example 395, 2-chloro-4-((3-(4-(cyanomethoxy)-2,3-difluorophenyl)imidazo[1,2-a]pyrazin-8-yl)amino)-N-methyl-N-(3-((2-methyl-5,6-dioxo-1,2,5,6-tetrahydro-1,2,4-triazin-3-yl)thio)propyl)benzamide]: 740 nM; for `CN(CCCn1c(=O)c(=O)[nH]n(C)c1=S)C(=O)c1ccc(Nc2nccn3c(-c4ccc(OCC#N)c(F)c4F)cnc23)cc1Cl` [Example 396, 2-chloro-4-((3-(4-(cyanomethoxy)-2,3-difluorophenyl)imidazo[1,2-a]pyrazin-8-yl)amino)-N-methyl-N-(3-(2-methyl-5,6-dioxo-3-thioxo-1,2,4-triazinan-4-yl)propyl)benzamide]: 570 nM; for `CCc1cc(Nc2nccn3c(-c4ccc(OC)c(F)c4F)cnc23)ccc1C(=O)NCCNC(=O)[C@@H](N)CCCN` [Example 397, N-[2-[[(2S)-2,5-diaminopentanoyl]amino]eth-yl]-4-[[3-(2,3-difluoro-4-methoxy-phenyl)imidazo[1,2-a]pyrazin-8-yl]amino]-2-ethyl-benzamide; formic acid]: 410 nM.

Regarding `CCc1cc(Nc2nccn3c(-c4ccc(OC)c(F)c4F)cnc23)ccc1C(=O)NCCNC(=O)[C@@H](N)CCCCN` [Example 398, N-[2-[[(2S)-2,6-diaminohexanoyl]amino]eth-yl]-4-[[3-(2,3-difluoro-4-methoxy-phenyl)imidazo[1,2-a]pyrazin-8-yl]amino]-2-ethyl-benzamide; formic acid], the IC90 turned out to be 410 nM. Regarding `CCc1cc(Nc2nccn3c(-c4ccc(OC)c(F)c4F)cnc23)ccc1C(=O)NCCNC(=O)[C@@H](N)CCN` [Example 399, N-[2-[[(2S)-2,4-diaminobutanoyl]amino]ethyl]-4-[[3-(2,3-difluoro-4-methoxy-phenyl)imidazo[1,2-a]pyrazin-8-yl]amino]-2-ethyl-benzamide; formic acid], the IC90 amounted to 380 nM.

With `CCc1cc(Nc2nccn3c(-c4ccc(OC)c(F)c4F)cnc23)ccc1C(=O)NCCNC(=O)[C@@H](N)CN` [Example 400, N-[2-[[(2S)-2,3-diaminopropanoyl]amino]eth-yl]-4-[[3-(2,3-difluoro-4-methoxy-phenyl)imidazo[1,2-a]pyrazin-8-yl]amino]-2-ethyl-benzamide; formic acid], the IC90 was determined as 320 nM. The same measure, in the same setting: the same measure for `CCc1cc(Nc2nccn3c(-c4ccc(OC(F)F)c(F)c4F)cnc23)ccc1C(=O)NC(C)CCN` (centres unmarked) [Example 402, N-(4-aminobutan-2-yl)-4-((3-(4-(difluoromethoxy)-2,3-difluorophenyl)imidazo[1,2-a]pyrazin-8-yl)amino)-2-ethylbenzamide hydrochloride]: 570 nM; for `CCc1cc(Nc2nccn3c(-c4ccc(OC(F)F)c(F)c4F)cnc23)ccc1C(=O)NCC(=O)NCCN(C)C` [Example 404, 4-((3-(4-(difluoromethoxy)-2,3-difluorophenyl)imidazo[1,2-a]pyrazin-8-yl)amino)-N-(2-((2-(dimethylamino)ethyl)amino)-2-oxoethyl)-2-ethylbenzamide]: 360 nM.

As for `CCc1cc(Nc2nccn3c(-c4ccc(OC)c(F)c4F)cnc23)ccc1C(=O)NCCCNC(=O)[C@H](CCCNC(=N)N)NC(=O)CC[C@H](N)C(=O)O` [Example 407, N5-((S)-1-((3-(4-((3-(2,3-difluoro-4-methoxyphenyl)imidazo[1,2-a]pyrazin-8-yl)amino)-2-ethylbenzamido)propyl)amino)-5-guanidino-1-oxopentan-2-yl)-L-glutamine trihydrochloride], the IC90 turned out to be 940 nM. Take `CCc1cc(Nc2nccn3c(-c4ccc(OC(F)F)c(F)c4F)cnc23)ccc1C(=O)NCC1(CO)COC(=O)N1` (centres unmarked) [Example 409, 4-((3-(4-(difluoromethoxy)-2,3-difluorophenyl)imidazo[1,2-a]pyrazin-8-yl)amino)-2-ethyl-N-((4-(hydroxymethyl)-2-oxooxazolidin-4-yl)methyl)benzamide]: the IC90 amounted to 450 nM. On the same count and under the same terms, the same measure for `CCc1cc(Nc2nccn3c(-c4ccc(OC)c(F)c4F)cnc23)ccc1C(=O)NCC(O)CNC(=O)CCCN` (centres unmarked) [Example 410, N-(3-(4-aminobutanamido)-2-hydroxypropyl)-4-((3-(2,3-difluoro-4-methoxyphenyl)imidazo[1,2-a]pyrazin-8-yl)amino)-2-ethylbenzamide hydrochloride]: 210 nM; for `CCc1cc(Nc2nccn3c(-c4ccc(OC)c(F)c4F)cnc23)ccc1C(=O)NCC(O)CNC(=O)CC(O)CN` (centres unmarked) [Example 411, N-(3-(4-amino-3-hydroxybutanamido)-2-hydroxypropyl)-4-((3-(2,3-difluoro-4-methoxyphenyl)imidazo[1,2-a]pyrazin-8-yl)amino)-2-ethylbenzamide hydrochloride]: 320 nM. For `CCc1cc(Nc2nccn3c(-c4ccc(Oc5ccccn5)c(F)c4F)cnc23)ccc1C(=O)NCCNC(=O)[C@@H](N)CCCNC(=N)N` [Example 417, N-[2-[[(2S)-2-amino-5-guanidino-pentanoyl]amino]ethyl]-4-[[3-[2,3-difluoro-4-(2-pyridyloxy)phenyl]imidazo [1,2-a]pyrazin-8-yl]amino]-2-ethyl-benzamide; formic acid], the IC90 was determined as 850 nM.

For the molecule `CCc1cc(Nc2nccn3c(-c4ccc(OC)c(F)c4F)cnc23)ccc1C(=O)NCCCCCN` [Example 418, N-(5-aminopentyl)-4-((3-(2,3-difluoro-4-methoxyphenyl)imidazo[1,2-a]pyrazin-8-yl)amino)-2-ethylbenzamide hydrochloride], the IC90 was found to be 33 nM.
